Measured values taken from patent US20240148821A1, “PHARMACEUTICAL USE OF CYCLIC PEPTIDE COMPOUND” (CHUGAI SEIYAKU KABUSHIKI KAISHA, priority 2021, published 2024).
Numbered stars: 1 amine (or outer) side, 2 acyl side, 3 side chain; on linkers, the order of the positions; unused ones are H or OH. Bridge positions count the residues as written; N and C are the ends. Square brackets hold non-standard residues; d marks the D form. Peptide text beside a SMILES is read from it. * marks the point of attachment. hPhe(3-Cl-4-CF3) = N[C@@H](CCc1ccc(C(F)(F)F)c(Cl)c1)C(=O)O; NEtPhe(4-Me) = CCN[C@@H](Cc1ccc(C)cc1)C(=O)O; NMeNle(6-CHF2) = CN[C@@H](CCCCC(F)F)C(=O)O; NMePhe(4-I) = CN[C@@H](Cc1ccc(I)cc1)C(=O)O; NMedβ3hAla = C[C@H](CC(=O)[*:2])N(C)[*:1]; NMeGly(cPent) = CN[C@H](C(=O)O)C1CCCC1; NMe4Pal = CN[C@@H](Cc1ccncc1)C(=O)O; NMeCha = CN[C@@H](CC1CCCCC1)C(=O)O; Hyp = O=C(O)[C@@H]1C[C@@H](O)CN1; NMeChg = CN[C@H](C(=O)O)C1CCCCC1; NMeD = CN[C@@H](CC(=O)O)C(=O)O; NMeHpra = C#CCC[C@H](NC)C(=O)O; NMeL = CN[C@@H](CC(C)C)C(=O)O; Cba = N[C@@H](CC1CCC1)C(=O)O; NMeV = CN[C@H](C(=O)O)C(C)C; d(β3hA) = C[C@@H](N)CC(=O)O; NMeS = CN[C@@H](CO)C(=O)O; NMeA = CN[C@@H](C)C(=O)O; Piperidide = C1CCN(*)CC1; Pyrrolidide = C1CCN(*)C1; Ac5c = NC1(C(=O)O)CCCC1; Aze = O=C(O)[C@@H]1CCN1; Sar = CNCC(=O)O; Propyl = CCC*

Target: protein-protein interaction between Kras and SOS1 (biotin-tagged human Kras loaded with GDP, His-tagged human SOS1) (Homo sapiens (Human), UniProt P01116, G12D)
Assay: Protein-protein interaction inhibition between Kras and SOS1 (KrasG12D-SOS PPI) using AlphaScreen;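 further: kras produced in E. coli, Ni-coupled donor beads and streptavidin acceptor beads, excitation 680 nm with emission detected at 520–620 nm via singlet oxygen transfer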
Assay type: biochemical
Settings: AlphaScreen; biotin-tagged human Kras loaded with GDP, His-tagged human SOS1; read-out: KRAS G12D-SOS PPI IC50

**Q.** For `CC[C@H](C)[C@@H]1NC(=O)[C@H](CCCCC(F)F)N(C)C(=O)C[C@@H](C(=O)N2CCCCC2)N(C)C(=O)[C@H](C(C)C)N(C)C(=O)C2(CCCC2)NC(=O)[C@@H]2CCCN2C(=O)[C@H](CCc2ccc(C(F)(F)F)c(Cl)c2)NC(=O)CN(C)C(=O)[C@H](CC2CCCCC2)N(C)C(=O)[C@@H]2CCN2C(=O)[C@H](C)N(C)C1=O` [Compound 94] ([NMeNle(6-CHF2)]I[NMeA][Aze][NMeCha][Sar][hPhe(3-Cl-4-CF3)]P[Ac5c][NMeV][NMeD]-Piperidide; lactam N-11), which IC50 is on record?
**A.** 3.3 nM

**Q.** With `CCO[C@@H]1C[C@H]2C(=O)NC3(CCCC3)C(=O)N(C)[C@@H](CC(C)C)C(=O)N(C)[C@H](C(=O)N3CCCC3)CC(=O)N(C)[C@@H](CC(C)C)C(=O)N[C@@H]([C@@H](C)CC)C(=O)N(C)CC(=O)N(C)CC(=O)N(C)[C@@H](CC3CCCCC3)C(=O)N(C)CC(=O)N[C@@H](CCc3ccc(C(F)(F)F)c(Cl)c3)C(=O)N2C1` [Compound 1748] ([NMeL]I[Sar][Sar][NMeCha][Sar][hPhe(3-Cl-4-CF3)][Hyp](Et)[Ac5c][NMeL][NMeD]-Pyrrolidide; lactam N-11) as the compound, how does the IC50 read?
**A.** 0.61 nM

**Q.** For `C#CCC[C@H]1C(=O)N[C@@H]([C@@H](C)CC)C(=O)N(C)[C@@H](C)C(=O)N2CC[C@H]2C(=O)N(C)[C@@H](Cc2ccc(I)cc2)C(=O)N(C)CC(=O)N[C@@H](CCc2ccc(C(F)(F)F)c(Cl)c2)C(=O)N2CCC[C@H]2C(=O)NC2(CCCC2)C(=O)N(C)[C@@H](C2CCCCC2)C(=O)N[C@H](C)CC(=O)N1C` [Compound 971] (cyclo([Ac5c][NMeChg][d(β3hA)][NMeHpra]I[NMeA][Aze][NMePhe(4-I)][Sar][hPhe(3-Cl-4-CF3)]P)), which IC50 is on record?
**A.** 16 nM

**Q.** For `CCCOC[C@H]1C(=O)N(C)CC(=O)N[C@@H](CCc2ccc(C(F)(F)F)c(Cl)c2)C(=O)N2CCC[C@H]2C(=O)NC2(CCCC2)C(=O)N(C)[C@@H](C2CCCC2)C(=O)N(C)[C@H](C)CC(=O)N(C)[C@@H](CC(C)C)C(=O)N[C@@H]([C@@H](C)CC)C(=O)N(C)[C@@H](C)C(=O)N2CC[C@H]2C(=O)N1C` [Compound 366] (cyclo([Ac5c][NMeGly(cPent)][NMedβ3hAla][NMeL]I[NMeA][Aze][NMeS](Propyl)[Sar][hPhe(3-Cl-4-CF3)]P)), which IC50 is on record?
**A.** 4 nM

**Q.** With `CC[C@H](C)[C@@H]1NC(=O)[C@H](CC(C)C)N(C)C(=O)C[C@@H](C(=O)N2CCCCC2)N(C)C(=O)[C@H](C2CCCCC2)N(C)C(=O)C2(CCCC2)NC(=O)[C@H](Cc2ccncc2)N(C)C(=O)[C@H](CCc2ccc(C(F)(F)F)c(Cl)c2)NC(=O)CN(C)C(=O)[C@H](CC2CCCCC2)N(C)C(=O)CN(C)C(=O)CN(C)C1=O` [Compound 36] ([NMeL]I[Sar][Sar][NMeCha][Sar][hPhe(3-Cl-4-CF3)][NMe4Pal][Ac5c][NMeChg][NMeD]-Piperidide; lactam N-11) as the compound, how does the IC50 read?
**A.** 4.7 nM

**Q.** `CC[C@H](C)[C@@H]1NC(=O)[C@H](CC(C)C)N(C)C(=O)C[C@@H](C)N(C)C(=O)[C@H](C2CCCC2)N(C)C(=O)C2(CCCC2)NC(=O)[C@@H]2CCCN2C(=O)[C@H](CCc2ccc(C(F)(F)F)c(Cl)c2)NC(=O)CN(C)C(=O)[C@H](Cc2ccc(C)cc2)N(CC)C(=O)[C@@H]2CCN2C(=O)[C@H](C)N(C)C1=O` [Compound 494] (cyclo([Ac5c][NMeGly(cPent)][NMedβ3hAla][NMeL]I[NMeA][Aze][NEtPhe(4-Me)][Sar][hPhe(3-Cl-4-CF3)]P)) was tested. Which IC50 did it give?
**A.** 8.6 nM

**Q.** Which IC50 does the source give for `CC(C)C[C@H]1C(=O)N[C@@H](CC2CCC2)C(=O)N(C)[C@@H](C)C(=O)N2CC[C@H]2C(=O)N(C)[C@@H](CC2CCCCC2)C(=O)N(C)CC(=O)N[C@@H](CCc2ccc(C(F)(F)F)c(Cl)c2)C(=O)N2CCC[C@H]2C(=O)NC2(CCCC2)C(=O)N(C)[C@@H](C(C)C)C(=O)N(C)[C@H](C(=O)N2CCCCC2)CC(=O)N1C` [Compound 733] ([NMeL][Cba][NMeA][Aze][NMeCha][Sar][hPhe(3-Cl-4-CF3)]P[Ac5c][NMeV][NMeD]-Piperidide; lactam N-11) here?
**A.** 51 nM
